Several values for one entry are separate records, joined by “and”; a condition that tells them apart may be missing. Equal values may be shown once. Inconclusive results and toxic doses are left out. Rule for the calls: active = survival T/C of 150% or more; inactive = T/C below 125% in these data.
Test system: P388 leukemia ip, CD2F1 mice, survival T/C
Assay: NCI In Vivo Anticancer Drug Screen. Data for tumor model P388 Leukemia (intraperitoneal) in CD2F1 (CDF1) mice
Conditions: endpoint: median survival time, higher = longer survival
Summary of the method: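 Mice carrying the transplanted tumor received test compound or vehicle. Survival was recorded in each group, and the value is the treated-group measurement divided by that of the vehicle-treated control group.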

[1] = dose: 50.0 mg/kg/injection, schedule: Q01DX005 (ip), vehicle: Klucel + Tween-80
[2] = dose: 100.0 mg/kg/injection, schedule: Q01DX005 (ip), vehicle: Klucel + Tween-80
[3] = dose: 60.0 mg/kg/injection, schedule: Q01DX005 (ip), vehicle: saline with Tween-80
[4] = dose: 120.0 mg/kg/injection, schedule: Q01DX005 (ip), vehicle: saline with Tween-80
[5] = dose: 50.0 mg/kg/injection, schedule: Q01DX005 (ip), vehicle: Klucel (hydroxypropylcellulose) (HPC)
[6] = dose: 100.0 mg/kg/injection, schedule: Q01DX005 (ip), vehicle: Klucel (hydroxypropylcellulose) (HPC)
[7] = dose: 200.0 mg/kg/injection, schedule: Q01DX005 (ip), vehicle: Klucel (hydroxypropylcellulose) (HPC)
[8] = dose: 100.0 mg/kg/injection, schedule: Q01DX001 (ip), vehicle: saline with Tween-80
[9] = dose: 200.0 mg/kg/injection, schedule: Q01DX001 (ip), vehicle: saline with Tween-80
[10] = dose: 6.25 mg/kg/injection, schedule: Q01DX005 (ip), vehicle: Klucel (hydroxypropylcellulose) (HPC)
[11] = dose: 12.5 mg/kg/injection, schedule: Q01DX005 (ip), vehicle: Klucel (hydroxypropylcellulose) (HPC)
[12] = dose: 240.0 mg/kg/injection, schedule: Q01DX005 (ip), vehicle: saline with Tween-80

Measured: T/C

O=C(O)c1c2c(nc3ccccc13)CCCC2
inactive: [1] 94 % of control | [2] 107 % of control

CCOC(=O)/C=C/C(=O)O.CCOC(=O)/C=C/C(=O)O.[Mn].[NH-]CC(=O)O
inactive: dose: 100.0 mg/kg/injection, schedule: Q04DX003 (ip), vehicle: saline 96 % of control | dose: 200.0 mg/kg/injection, schedule: Q04DX003 (ip), vehicle: saline 96 % of control | dose: 400.0 mg/kg/injection, schedule: Q04DX003 (ip), vehicle: saline 98 % of control

O=C(O)/C(Cl)=C(\Cl)C(=O)Nc1ccc(Br)cc1
inactive: dose: 15.0 mg/kg/injection, schedule: Q01DX005 (ip), vehicle: saline with Tween-80 102 % of control | dose: 30.0 mg/kg/injection, schedule: Q01DX005 (ip), vehicle: saline with Tween-80 102 % of control | [3] 99 % of control and 111 % of control | [4] 104 % of control

O=C1C=CC(O)C1(O)CO (centres undefined)
inactive: dose: 2.5 mg/kg/injection, schedule: Q01DX009 (ip), vehicle: saline + alcohol 98 % of control | dose: 5.0 mg/kg/injection, schedule: Q01DX009 (ip), vehicle: saline + alcohol 100 % of control | dose: 10.0 mg/kg/injection, schedule: Q01DX009 (ip), vehicle: saline + alcohol 105 % of control | dose: 20.0 mg/kg/injection, schedule: Q01DX009 (ip), vehicle: saline + alcohol 101 % of control

O=C(OCCS(=O)(=O)CCOC(=O)ON1C(=O)CCC1=O)ON1C(=O)CCC1=O
inactive: [5] 109 % of control | [6] 109 % of control | [7] 115 % of control

Cc1ccc(NC(=O)CCCCC(C)NCC(O)c2ccc(O)c(O)c2)cc1 (centres undefined)
inactive: dose: 100.0 mg/kg/injection, schedule: Q01DX001 (ip), vehicle: saline 97 % of control | dose: 200.0 mg/kg/injection, schedule: Q01DX001 (ip), vehicle: saline 100 % of control

O=[N+]([O-])c1ccc(Sc2ccc([N+](=O)[O-])cc2)cc1
inactive: dose: 50.0 mg/kg/injection, schedule: Q04DX003 (ip), vehicle: saline with Tween-80 90 % of control | dose: 66.0 mg/kg/injection, schedule: Q04DX003 (ip), vehicle: saline with Tween-80 90 % of control | dose: 100.0 mg/kg/injection, schedule: Q04DX003 (ip), vehicle: saline with Tween-80 100 % of control and 95 % of control | dose: 150.0 mg/kg/injection, schedule: Q04DX003 (ip), vehicle: saline with Tween-80 90 % of control | dose: 200.0 mg/kg/injection, schedule: Q04DX003 (ip), vehicle: saline with Tween-80 90 % of control

O=C(O)c1ccnc(C(=O)O)c1
inactive: [8] 100 % of control | [9] 90 % of control

Cc1cc(=O)n(-c2cc(C)c3cc(Cl)ccc3n2)[nH]1
inactive: [8] 93 % of control | [9] 94 % of control | dose: 400.0 mg/kg/injection, schedule: Q01DX001 (ip), vehicle: saline with Tween-80 104 % of control

CCCCCCCCCCCC1=C(O)C(=O)C(CC2=C(O)C(=O)C(CCCCCCCCCCC)=C(O)C2=O)=C(O)C1=O
inactive: dose: 25.0 mg/kg/injection, schedule: Q01DX005 (ip), vehicle: Klucel + Tween-80 97 % of control | [5] 86 % of control | [1] 91 % of control | [2] 91 % of control | [7] 89 % of control

O=C(NCCF)Oc1cc(Cl)c(Cl)cc1Cl
inactive: [10] 106 % of control | [11] 107 % of control and 120 % of control

CN(C)c1nc(N)nc2c1nc(Cl)n2C1OC(CO)C(O)C1O (centres undefined)
inactive: dose: 50.0 mg/kg/injection, schedule: Q01DX005 (ip), vehicle: saline with Tween-80 99 % of control | dose: 100.0 mg/kg/injection, schedule: Q01DX005 (ip), vehicle: saline with Tween-80 100 % of control | dose: 200.0 mg/kg/injection, schedule: Q01DX005 (ip), vehicle: saline with Tween-80 100 % of control

CCCCOC1NC(=O)Oc2ccccc21 (centres undefined)
inactive: [3] 100 % of control and 103 % of control and 97 % of control | [4] 101 % of control and 108 % of control (2×) | [12] 100 % of control and 109 % of control

CC(=O)CC1CCCC(C#N)N1 (centres undefined)
inactive: dose: 12.5 mg/kg/injection, schedule: Q01DX005 (ip), vehicle: saline 97 % of control | dose: 25.0 mg/kg/injection, schedule: Q01DX005 (ip), vehicle: saline 101 % of control | dose: 50.0 mg/kg/injection, schedule: Q01DX005 (ip), vehicle: saline 100 % of control and 98 % of control

COC1OCN(Cc2ccccc2)CC1(C)C (centres undefined)
inactive: dose: 50.0 mg/kg/injection, schedule: Q01DX009 (ip), vehicle: saline with Tween-80 108 % of control | dose: 100.0 mg/kg/injection, schedule: Q01DX009 (ip), vehicle: saline with Tween-80 120 % of control

C=C(Br)C(=NC(C)(C)C)Nc1ccccc1Cl
inactive: [10] 98 % of control | [11] 109 % of control | dose: 25.0 mg/kg/injection, schedule: Q01DX005 (ip), vehicle: Klucel (hydroxypropylcellulose) (HPC) 111 % of control and 120 % of control and 118 % of control | [5] 118 % of control | [6] 110 % of control

CCCCCCCCCCCCCCCCCC1=NC(C)CC(C)(C)O1 (centres undefined)
inactive: dose: 100.0 mg/kg/injection, schedule: Q01DX009 (ip), vehicle: saline 95 % of control | dose: 200.0 mg/kg/injection, schedule: Q01DX009 (ip), vehicle: saline 104 % of control

Cc1cc(C=C2C(=O)NC(=S)NC2=O)cc(C)c1O
inactive: dose: 12.5 mg/kg/injection, schedule: Q01DX005 (ip), vehicle: saline with Tween-80 101 % of control and 96 % of control and 97 % of control | dose: 25.0 mg/kg/injection, schedule: Q01DX005 (ip), vehicle: saline with Tween-80 105 % of control and 106 % of control and 118 % of control

CCCCCCCCCCCCCCCCSC1=CC(=O)C(Cl)=C(Cl)C1=O
inactive: dose: 10.0 mg/kg/injection, schedule: Q01DX009 (ip), vehicle: Klucel (hydroxypropylcellulose) (HPC) 96 % of control | dose: 20.0 mg/kg/injection, schedule: Q01DX009 (ip), vehicle: Klucel (hydroxypropylcellulose) (HPC) 96 % of control | dose: 40.0 mg/kg/injection, schedule: Q01DX009 (ip), vehicle: Klucel (hydroxypropylcellulose) (HPC) 95 % of control

COc1ccc(C2CN(C(=O)c3ccccc3)N=C(c3ccccc3)O2)cc1 (centres undefined)
inactive: [5] 100 % of control | [6] 101 % of control | [7] 94 % of control

CC1=CC(C)(C)Nc2ccc(OC(=O)/C=C(C)/C=C/C=C(C)/C=C/C3=C(C)CCCC3(C)C)cc21
inactive: [3] 94 % of control | [4] 91 % of control | [12] 94 % of control
